One may read the pIC50 as −log10 of the IC50, conventionally taken in molar units.

In assay [1] the target is T1, IDO1 (Homo sapiens, UniProt P14902). Kind of assay: Cell-based assay for IDO1 in interferon-γ stimulated A-375 melanoma cells. To be noted: interferon-γ stimulation, 48 hours, read-out: IC50, cell-based IDO1 (NFK levels). The protocol:
The biological activity of IDO1 inhibitors can be measured by applying above detection methods to cells that are treated with test compound. The expression of IDO1 can be induced in many different cell lines by stimulation with IFNγ (Takikawa, O., et al., J. Biol. Chem. 263: 2041; 1988; Seegers, et al.), or IDO1 can be expressed in cells that lack endogenous IDO1 by transfection of an expression vector containing IDO1 cDNA.
A-375 melanoma cells were purchased from LGC Standards GmbH (Wesel, Germany) and cultured in DMEM tissue culture medium (Life Technologies, Bleiswijk, The Netherlands), supplemented with 10% (v/v) bovine calf serum. Compounds were dissolved in DMSO and diluted in DMEM. Final DMSO concentration in the assay was 0.4% (v/v). Eight thousand cells per well in 35 μl were seeded in a black 384-well tissue plate (cat. No. 781086; Greiner Bio-One GmbH, Frickenhausen, Germany) and allowed to adhere by incubation at 37° C., 95% humidity, and 5% CO2 overnight. Then, 5 μl of compound solution was added to the cells 1 hour prior to stimulation with 5 μl of 500 ng/ml interferon-γ (R&D Systems, Minneapolis, Minn., USA) diluted in DMEM medium. At the same time, 5 μl of L-tryptophan in 20 mM Hepes buffer pH 7.4 was added. Incubation was continued for 48 hours. To determine NFK levels, 12 μl NFK Green™ (NTRC, Oss, The Netherlands) was added to each well, and the plate was sealed and incubated for 4 hours at 37° C. Fluorescence was measured on an EnVision multimode reader (Perkin Elmer, Waltham, Mass., USA). IC50 were calculated using XLfit™ software (ID Business Solutions, Ltd., Surrey, U.K.).

The target in assay [2] is T1, IDO1. The assay is described as follows: Biochemical IDO1 assay (NFK GreenScreen). To be noted: for pIC50: recombinant full-length IDO1 25 nM, L-tryptophan 100 μM, NFK Green detection, read-out: IC50, inhibitory potency on IDO1. On the set-up: Recombinant full-length IDO1 (Seegers, N., et al.) and all other assay components were diluted in IDO1 reaction buffer; made in house. The method, boiled down: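 Recombinant full-length IDO1 in 50 mM NaH2PO4 pH 7.0 with 0.05% Tween-20 and 1% glycerol converted 100 μM L-tryptophan (final) over 60 min at room temperature with compound, 0.3% DMSO.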

SMILES strings stand for the structures. pIC50: −log10 of the molar value. Where “and” joins values, the source holds several entries; their conditions need not be identical. Equal entries are not always repeated.

T1 sequence (P14902 whole entry, species assumed): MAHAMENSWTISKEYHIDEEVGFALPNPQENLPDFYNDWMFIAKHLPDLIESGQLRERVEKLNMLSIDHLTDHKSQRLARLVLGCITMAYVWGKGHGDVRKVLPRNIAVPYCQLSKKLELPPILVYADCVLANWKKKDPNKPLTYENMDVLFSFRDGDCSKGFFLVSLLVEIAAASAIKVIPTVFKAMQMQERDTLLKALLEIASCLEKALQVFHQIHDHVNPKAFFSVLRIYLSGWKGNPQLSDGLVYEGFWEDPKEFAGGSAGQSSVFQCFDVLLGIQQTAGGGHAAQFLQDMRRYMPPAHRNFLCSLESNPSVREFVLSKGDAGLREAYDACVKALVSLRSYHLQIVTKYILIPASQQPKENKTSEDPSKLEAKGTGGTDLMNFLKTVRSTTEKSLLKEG

For `O=C1CN(C(=O)c2ccccc2)C(c2cccc(Br)c2)N1O` (centres unmarked) [Example 17, 1-Benzoyl-2-(3-bromophenyl)-3-hydroxy-imidazolidin-4-one], the pIC50 was above 5.30 at IDO1 [1]; ≥ 5.30 and 5.30 to 6.00 at IDO1 [2].

Take `O=C1CN(C(=O)c2c(F)cccc2F)C(c2cccc(I)c2)N1O` (centres unmarked) [Example 71, 1-(2,6-Difluorobenzoyl)-3-hydroxy-2-(3-iodophenyl)imidazolidin-4-one]: the pIC50 on IDO1 [1] is above 5.30; on IDO1 [2], at least 6.00.

In the case of `O=C1CN(C(=O)c2c(F)cccc2F)C(c2ccc(F)c(Cl)c2)N1O` (centres unmarked) [Example 52, 2-(3-Chloro-4-fluoro-phenyl)-1-(2,6-difluorobenzoyl)-3-hydroxy-imidazolidin-4-one], the results for the pIC50 at IDO1 [1] and at IDO1 [2] were above 5.30 and at least 6.00, respectively.

For `O=C1CN(C(=O)c2cccnc2F)C(c2cccc(Br)c2)N1O` (centres unmarked) [Example 87, 2-(3-Bromophenyl)-1-(2-fluoropyridine-3-carbonyl)-3-hydroxy-imidazolidin-4-one], the pIC50 was above 5.30 on IDO1 [1] and at least 6.00 on IDO1 [2].

Consider `Cc1cc(F)c(C(=O)N2CC(=O)N(O)C2c2cccc(Br)c2)c(F)c1` (centres unmarked) [Example 116, 2-(3-Bromophenyl)-1-(2,6-difluoro-4-methyl-benzoyl)-3-hydroxy-imidazolidin-4-one], for which the figures for the pIC50 on IDO1 [1] and on IDO1 [2] were above 5.30 and at least 6.00, respectively.

Regarding `O=C1CN(C(=O)c2c(F)cccc2Cl)C(c2cccc(Br)c2)N1O` (centres unmarked) [Example 32, 2-(3-Bromophenyl)-1-(2-chloro-6-fluoro-benzoyl)-3-hydroxy-imidazolidin-4-one], the pIC50 at IDO1 [1] is above 5.30; on IDO1 [2] it was at least 6.00.

For the compound `O=C1CN(C(=O)c2cc(F)ccc2F)C(c2cccc(Br)c2)N1O` (centres unmarked) [Example 26, 2-(3-Bromophenyl)-1-(2,5-difluorobenzoyl)-3-hydroxy-imidazolidin-4-one], the pIC50 was above 5.30 at IDO1 [1] and at least 6.00 on IDO1 [2].

For the compound `O=C1CN(C(=O)c2c(F)cccc2Cl)C(c2cccc(I)c2)N1O` (centres unmarked) [Example 72, 1-(2-chloro-6-fluoro-benzoyl)-3-hydroxy-2-(3-iodophenyl)imidazolidin-4-one], the figures for the pIC50 at IDO1 [1] and at IDO1 [2] were above 5.30 and at least 6.00, respectively.

Turning to `C[C@@H](c1ccccc1)N1CC(=O)N(O)C1c1cccc(I)c1` (single isomer, unassigned) [Example 140a], the pIC50 at IDO1 [1] was above 5.30; on IDO1 [2], ≥ 5.30 and 5.30 to 6.00. At IDO1 [2] (less active / most active isomer of the pair, assay not given), the “relative activity of separated isomers” value was “less active isomer”.

For the compound `O=C1CN(C(=O)c2cccc(F)c2)C(c2ccc(F)c(Br)c2)N1O` (centres unmarked) [Example 43, 2-(3-Bromo-4-fluoro-phenyl)-1-(3-fluorobenzoyl)-3-hydroxy-imidazolidin-4-one], the pIC50 at IDO1 [1] is above 5.30; on IDO1 [2] it was ≥ 5.30 and 5.30 to 6.00.

`O=C1CN(C(=O)c2ccccc2)C(c2ccc(F)c(Br)c2)N1O` (centres unmarked) [Example 39, 1-Benzoyl-2-(3-bromo-4-fluoro-phenyl)-3-hydroxy-imidazolidin-4-one]: the pIC50 is above 5.30 on IDO1 [1]; ≥ 5.30 and 5.30 to 6.00 on IDO1 [2].

Take `O=C1CN(C(=O)c2c(F)cccc2F)C(c2ccc(F)c(Br)c2)N1O` (centres unmarked) [Example 44, 2-(3-Bromo-4-fluoro-phenyl)-1-(2,6-difluorobenzoyl)-3-hydroxy-imidazolidin-4-one]: the pIC50 at IDO1 [1] was above 5.30; on IDO1 [2], at least 6.00.

For `O=C1CN(C(=O)c2c(F)c(F)c(F)c(F)c2F)C(c2cccc(Br)c2)N1O` (centres unmarked) [Example 62, 2-(3-Bromophenyl)-3-hydroxy-1-(2,3,4,5,6-pentafluorobenzoyl)imidazolidin-4-one], the figures for the pIC50 at IDO1 [1] and on IDO1 [2] were above 5.30 and at least 6.00, respectively.

Take `Nc1ccc(F)c(C(=O)N2CC(=O)N(O)C2c2cccc(Br)c2)c1F` (centres unmarked) [Example 76, 1-(3-Amino-2,6-difluoro-benzoyl)-2-(3-bromophenyl)-3-hydroxy-imidazolidin-4-one]: the pIC50 was above 5.30 at IDO1 [1] and at least 6.00 on IDO1 [2].

Take `O=C1CN(C(=O)c2ccncc2F)C(c2cccc(Br)c2)N1O` (centres unmarked) [Example 86, 2-(3-Bromophenyl)-1-(3-fluoropyridine-4-carbonyl)-3-hydroxy-imidazolidin-4-one]: the pIC50 was above 5.30 at IDO1 [1] and at least 6.00 on IDO1 [2].

For the compound `O=C1CN(C(=O)c2c(F)cc(C3CC3)cc2F)C(c2cccc(Br)c2)N1O` (centres unmarked) [Example 114, 2-(3-Bromophenyl)-1-(4-cyclopropyl-2,6-difluoro-benzoyl)-3-hydroxy-imidazolidin-4-one], the pIC50 on IDO1 [1] was above 5.30; on IDO1 [2] it was at least 6.00.

With `N#Cc1cc(F)c(C(=O)N2CC(=O)N(O)C2c2cccc(Br)c2)c(Cl)c1` (centres unmarked) [Example 25, 4-[2-(3-Bromophenyl)-3-hydroxy-4-oxo-imidazolidine-1-carbonyl]-3-chloro-5-fluoro-benzonitrile], the pIC50 was above 5.30 on IDO1 [1]; ≥ 5.30 and 5.30 to 6.00 on IDO1 [2].

Turning to `COc1cc(F)c(C(=O)N2CC(=O)N(O)C2c2cccc(Br)c2)c(F)c1` (centres unmarked) [Example 66, 2-(3-Bromophenyl)-1-(2,6-difluoro-4-methoxy-benzoyl)-3-hydroxy-imidazolidin-4-one], the negative-log IC50 (pIC50) at IDO1 [1] is above 5.30; on IDO1 [2] it was at least 6.00.

For `O=C1CN(C(=O)c2ccccc2F)C(c2cccc(I)c2)N1O` (centres unmarked) [Example 73, 1-(2-Fluorobenzoyl)-3-hydroxy-2-(3-iodophenyl)imidazolidin-4-one], the pIC50 on IDO1 [1] was above 5.30; at IDO1 [2] it was at least 6.00.

`O=C1CN(C(=O)c2ccc(F)cc2F)C(c2cccc(Br)c2)N1O` (centres unmarked) [Example 54, 2-(3-Bromophenyl)-1-(2,4-difluorobenzoyl)-3-hydroxy-imidazolidin-4-one]: the pIC50 on IDO1 [1] is above 5.30; on IDO1 [2], at least 6.00.

Consider `COCCNC(=O)c1c(Br)cc(F)c(C(=O)N2CC(=O)N(O)C2c2cccc(Br)c2)c1F` (centres unmarked) [Example 138, 6-Bromo-3-[2-(3-bromophenyl)-3-hydroxy-4-oxo-imidazolidine-1-carbonyl]-2,4-difluoro-N-(2-methoxyethyl)benzamide], for which the negative-log IC50 (pIC50) on IDO1 [1] was above 5.30; at IDO1 [2], at least 6.00.

For `O=C1CN(Cc2ccccc2F)C(c2cccc(I)c2)N1O` (centres unmarked) [Example 124, 1-[(2-Fluorophenyl)methyl]-3-hydroxy-2-(3-iodophenyl)imidazolidin-4-one], the results for the negative-log IC50 (pIC50) at IDO1 [1] and on IDO1 [2] were above 5.30 and at least 6.00, respectively.

With `O=C1CN(C(=O)c2c(F)cc(C#CC3CC3)cc2F)C(c2cccc(Br)c2)N1O` (centres unmarked) [Example 106, 2-(3-Bromophenyl)-1-[4-(2-cyclopropylethynyl)-2,6-difluoro-benzoyl]-3-hydroxy-imidazolidin-4-one], the pIC50 at IDO1 [1] was above 5.30; at IDO1 [2], at least 6.00.

As to `CC(c1c(F)cccc1F)N1CC(=O)N(O)C1c1cccc(Br)c1` (single isomer, unassigned) [Example 141b, 2-(3-Bromophenyl)-1-[1-(2,6-difluorophenyl)ethyl]-3-hydroxy-imidazolidin-4-one], the results for the pIC50 at IDO1 [1] and on IDO1 [2] were above 5.30 and at least 6.00, respectively.

On to `O=C1CN(C(=O)c2c(F)cccc2Cl)C(c2cccc(C(F)(F)F)c2)N1O` (centres unmarked) [Example 3, 1-(2-Chloro-6-fluoro-benzoyl)-3-hydroxy-2-[3-(trifluoromethyl)phenyl]imidazolidin-4-one], for which the pIC50 on IDO1 [1] is above 5.30; at IDO1 [2], at least 6.00.

As to `O=C1CN(C(=O)c2ccccc2F)C(c2cccc(Cl)c2)N1O` (centres unmarked) [Example 13, 2-(3-Chlorophenyl)-1-(2-fluorobenzoyl)-3-hydroxy-imidazolidin-4-one], the pIC50 at IDO1 [1] was above 5.30; on IDO1 [2] it was at least 6.00.

On to `O=C1CN(C(=O)c2ccc(F)cc2F)C(c2cccc(Cl)c2)N1O` (centres unmarked) [Example 59, 2-(3-Chlorophenyl)-1-(2,4-difluorobenzoyl)-3-hydroxy-imidazolidin-4-one], for which the pIC50 was above 5.30 at IDO1 [1] and at least 6.00 at IDO1 [2].

Take `COCCNC(=O)c1cc(F)c(C(=O)N2CC(=O)N(O)C2c2cccc(Br)c2)c(F)c1` (centres unmarked) [Example 137, 4-[2-(3-Bromophenyl)-3-hydroxy-4-oxo-imidazolidine-1-carbonyl]-3,5-difluoro-N-(2-methoxyethyl)benzamide]: the pIC50 on IDO1 [1] was above 5.30; on IDO1 [2], at least 6.00.

For `O=C1CN(C(=O)c2c(F)cccc2F)C(c2cccc(C3CC3)c2)N1O` (centres unmarked) [Example 99, 2-(3-Cyclopropylphenyl)-1-(2,6-difluorobenzoyl)-3-hydroxy-imidazolidin-4-one], the pIC50 on IDO1 [1] was above 5.30; on IDO1 [2], ≥ 5.30 and 5.30 to 6.00.

(Values after US10494360B2, “Inhibitors of indoleamine 2,3-dioxygenase” (NETHERLANDS TRANSLATIONAL RESEARCH CENTER B.V., priority 2016, dated 2019).)
